Measured values reported in patent publication US4122184A, “Benzimidazole insecticides” (priority 1977, dated 1978).

Columns and labels:
Type in all cases: in vivo
Eastern Tent Caterpillar [1] = test: Field trial, topical application
Procedure, shortened: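 1 μL benzimidazole solution of set microgram content applied topically to larvae or adults. Mortality read at 24, 48 and 72 h where applicable, rated 0-9 (0 = 0-10%, 9 = 91-100%); values are average mortality per concentration.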

Picnic Beetle [2] = test: Field trial (first summer), contact; settings: 250 ppm
Excerpt: (§1) Infested plants are placed in 6 oz. prescription bottles filled with water to keep them from wilting. Cellucotton is wrapped around the plant stem and squeezed into the bottle neck to prevent the insects from drowning.
(§2) A DeVilbiss Special Atomizer (5004) is used at 10 psi to spray the test plant with different concentrations of compounds. The atomizer is held at arm's length to prevent blowing the insects off the host plant. After treating, the bottles are placed on a table covered with brown wrapping paper to catch the dead insects as they drop from the plant. The plants are spaced so the leaves or plants are not touching one another.
(§3) The results are read at 24, 48, and 72 hours when applicable. The rating scale is 0 to 9 where 0 = 0-10 percent and 9 = 91-100 percent mortality.
(§4) During the previous summer similar field trials were conducted employing the same tests as heretofore but with some additional species of insects not included in the later tests. The results listed below are for tests in which an insect mortality was established by a given application route and at a given concentration in a particular test. The same 0 - 9 scoring system is used as is the designation of compounds by alphabetical symbols.

Milkweed Beetle = test: Field trial (first summer), contact; settings: 125 ppm
Excerpt: as §1, §2, §3, §4

Bagworms = test: Field trial, stomach poison test
Procedure, shortened: (§5)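 Mortality scored 0–9 at 24, 48 and 72 h after insects fed on treated leaves. Leaves sprayed at 10 psi or dipped in test solutions, air-dried; 5 or 10 insects/dish, 1–2 replicates, typically 2–3 rates per compound. Values are average mortality per concentration.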

Elm Leaf Beetle [3] = test: Field trial, stomach poison test
Procedure, shortened: as §5

[4] = system: Red-Legged Grasshopper Adults; test: Field trial, stomach poison test
Procedure, shortened: as §5

Armyworm, P. Unipuncta [5] = test: Field trial, stomach poison test
Procedure, shortened: as §5

Eastern Tent Caterpillar [6] = test: Field trial, stomach poison test
Procedure, shortened: as §5

Walnut Caterpillar [7] = test: Field trial, stomach poison test
Procedure, shortened: as §5

Picnic Beetle [8] = test: Field trial (first summer), stomach; settings: 250 ppm
Experimental: Leaves from the infested plant are treated with different concentrations of the test compounds, either by spraying with a DeVilbiss Special Atomizer (5004) at 10 psi or by dipping the leaves in solutions containing the compound. The leaves are then allowed to air dry.
After the leaves have dryed, they are placed in plastic petri dishes (100 × 25 mm), then the insects are counted out into each dish, five or ten insects per dish depending on the number of insects available. There are one or two replicates and usually two or three rates with each compound. Mortality results are taken at 24, 48 and 72 hours. The rating scale is 0 to 9.
as §4

Elm Leaf Beetle [9] = test: Field trial, contact poison test
Procedure, shortened: (§6)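 Contact spray, atomizer 10 psi, arm's length, several concentrations; infested plants in water bottles, stems wrapped in cellucotton, plants spaced apart. Scored 24, 48, 72 h; scale 0–9 by percent mortality.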

Armyworm, P. Unipuncta [10] = test: Field trial, contact poison test
Procedure, shortened: as §6

Eastern Tent Caterpillar [11] = test: Field trial, contact poison test
Procedure, shortened: as §6

Walnut Caterpillar [12] = test: Field trial, contact poison test
Procedure, shortened: as §6

O=[N+]([O-])c1cc(C(F)(F)F)cc2nc(C(F)(F)F)[nH]c12 [A, 2,6-bis(trifluoromethyl)-4-nitrobenzimidazole]
9 (91-100 percent mortality): insect mortality rating (Picnic Beetle [2]) | insect mortality rating (Milkweed Beetle) | average mortality rating (Armyworm, P. Unipuncta [5]; 125 ppm) | average mortality rating (Armyworm, P. Unipuncta [5]; 250 ppm) | average mortality rating (Armyworm, P. Unipuncta [5]; 500 ppm) | insect mortality rating (Picnic Beetle [8]) | average mortality rating (Elm Leaf Beetle [9]; 1000 ppm)
3: average mortality rating (Eastern Tent Caterpillar [1]; 0.3 μg/μl) | average mortality rating (Eastern Tent Caterpillar [1]; 1.2 μg/μl) | average mortality rating (Elm Leaf Beetle [3]; 125 ppm) | average mortality rating (Walnut Caterpillar [7]; 100 ppm) | average mortality rating (Walnut Caterpillar [7]; 250 ppm) | average mortality rating (Armyworm, P. Unipuncta [10]; 500 ppm) | average mortality rating (Eastern Tent Caterpillar [11]; 100 ppm)
1: average mortality rating (Eastern Tent Caterpillar [1]; 0.6 μg/μl) | average mortality rating (Bagworms; 500 ppm) | average mortality rating (Bagworms; 1500 ppm) | average mortality rating (Bagworms; 5000 ppm) | average mortality rating (Walnut Caterpillar [7]; 50 ppm) | average mortality rating (Armyworm, P. Unipuncta [10]; 250 ppm) | average mortality rating (Walnut Caterpillar [12]; 25 ppm) | average mortality rating (Walnut Caterpillar [12]; 50 ppm) | average mortality rating (Walnut Caterpillar [12]; 100 ppm)
4: average mortality rating ([4]; 25 ppm)
5: average mortality rating (Elm Leaf Beetle [3]; 500 ppm) | average mortality rating (Eastern Tent Caterpillar [11]; 250 ppm) | average mortality rating (Eastern Tent Caterpillar [11]; 500 ppm)
6: average mortality rating ([4]; 50 ppm)
0 (0-10 percent): average mortality rating (Bagworms; 750 ppm) | average mortality rating (Bagworms; 1000 ppm) | average mortality rating (Bagworms; 2500 ppm) | average mortality rating (Elm Leaf Beetle [3]; 250 ppm) | average mortality rating ([4]; 10 ppm) | average mortality rating (Eastern Tent Caterpillar [6]; 250 ppm) | average mortality rating (Eastern Tent Caterpillar [6]; 500 ppm) | average mortality rating (Eastern Tent Caterpillar [6]; 1000 ppm) | average mortality rating (Elm Leaf Beetle [9]; 250 ppm) | average mortality rating (Armyworm, P. Unipuncta [10]; 125 ppm) | average mortality rating (Eastern Tent Caterpillar [11]; 50 ppm)
7: average mortality rating (Elm Leaf Beetle [9]; 500 ppm) | average mortality rating (Walnut Caterpillar [12]; 250 ppm)
